Measured values published in patent EP0318620A1, “Herbicidal sulfonamides” (E.I. DU PONT DE NEMOURS AND COMPANY, priority 1987, dated 1989).

Columns and labels:
[1] = system: rice; experiment: Test B pan test in Sassafras sandy loam soil, pre- and postemergence; assay type: in vivo, Oryza sativa; settings: scale 0 to 100
From the text: (§1) Three round pans (25 cm diameter by 12.5 cm deep) were filled with Sassafras sandy loam soil. One pan was planted with nutsedge (Cyperus rotundus) tubers, crabgrass (Digitaria sanguinalis), sicklepod (Cassia obtusifolia), jimsonweed (Datura stramonium), velvetleaf (Abutilon theophrasti), lambsquarters (Chenopodim album), rice (Oryza sativa) and teaweed (Sida spinosa). The second pot was planted with green foxtail (Setaria viridis), cocklebur (Xantium pensyivanicum), morningglory (lpomoea hederacea), cotton (Gossypium hirsutum), johnsongrass (Sorghum halepense), barnyardgrass (Echinochloa crusgalli), corn (Zea mays), soybean (Glycine max) and giant foxtail (Setaria faberi). The third pot was planted with wheat (Triticum aestivum), barley (Hordeum vulgare), wild buckwheat (Polgonum convolvulus L.), cheatgrass (Bromus secalinus L.), sugarbeet (Beta vulgaris), wild oats (Avena fatua), viola (Viola arvensis), blackgrass (Alopecurus myosuroides), and rape (Brassica napus). The plants were grown for approximately fourteen days, then sprayed postemergence with the chemicals dissolved in a non-phytotoxic solvent.
(§2) Three round pans (25 cm diameter by 12.5 cm deep) were filled with Sassafras sandy loam soil. One pan was planted with nutsedge tubers, crabgrass, sicklepod, jimsonweed, velvetleaf, lambsquarters, rice and teaweed. The second pot was planted with green foxtail, cocklebur, morningglory, cottom, johnsongrass, . barnyardgrass, corn, soybean and giant foxtail. The third pot was planted with wheat, barley, wild buckwheat, cheatgrass, sugarbeet, wild oat, viola, blackgrass and rape. The three pans were sprayed preemer gence with the chemicals dissolved in a non-phytotoxic solvent.
(§3) Treated plants and controls were maintained in the greenhouse for 24 days, then all rated plants were compared to controls and visually rated for plant response.
(§4) A dash (-) response means no test.

[2] = system: teaweed; experiment: as above; assay type: in vivo, Sida spinosa; settings: scale 0 to 100
From the text: as §1, §2, §3, §4

[3] = system: morningglory; experiment: Test A greenhouse herbicide test, pre- and postemergence; assay type: in vivo, Ipomoea spp.; settings: rated after sixteen days
From the text: (§5) Seeds of crabgrass (Digitaria spp.), barnyardgrass (Echinochloa crusgalli), cheatgrass (Bromus Secalinus), giant foxtail (Setaria faberii), wild oats (Avena fatua), velvetleaf (Abutilon theophrasti), morningglory (Ipomoea spp. , cocklebur (Xanthium pensylvanicum). sorghum, corn, barley, soybean, sugarbeet, cotton, rice, wheat and purple nutsedge (Cyperus rotundus) tubers were planted and treated preemergence with the test chemicals dissolved in a non-phytotoxic solvent. At the same time, these crop and weed species were treated with a soil/foliage application. At the time of treatment, the plants ranged in height from 2 to 18 cm. Treated plants and controls were maintained in a greenhouse for sixteen days, after which all species were compared to controls and visually rated for response to treatment. The ratings, summarized in Table A, are based on a numerical scale extending from 0 = no injury, to 10 = complete kill. The accompanying descriptive symbols have the following meanings: • B = burn; • C = chlorosis/necrosis; • D = defoliation; • E = emergence inhibition; • G = growth retardation; • H = formative effect; • U = unusual pigmentation; • X = axillary stimulation; • S = albinism; and • 6Y = abscised buds or flowers.

[4] = system: cotton; experiment: Test B pan test in Sassafras sandy loam soil, pre- and postemergence; assay type: in vivo, Gossypium hirsutum; settings: scale 0 to 100
From the text: as §1, §2, §3, §4

[5] = system: wild buckwheat; experiment: as above; assay type: in vivo, Polgonum convolvulus L.; settings: scale 0 to 100
From the text: as §1, §2, §3, §4

[6] = system: wild oats; experiment: Test A greenhouse herbicide test, pre- and postemergence; assay type: in vivo, Avena fatua; settings: PREEMERGENCE; RATE 0.01 KG/HA; rated after sixteen days
From the text: as §5

[7] = system: soybean; experiment: Test B pan test in Sassafras sandy loam soil, pre- and postemergence; assay type: in vivo, Glycine max; settings: scale 0 to 100
From the text: as §1, §2, §3, §4

[8] = system: corn; experiment: Test A greenhouse herbicide test, pre- and postemergence; assay type: in vivo; settings: rated after sixteen days
From the text: as §5

[9] = system: rice; experiment: as above; assay type: in vivo; settings: rated after sixteen days
From the text: as §5

[10] = system: sugarbeet; experiment: as above; assay type: in vivo; settings: POSTEMERGENCE, rated after sixteen days
From the text: as §5

[11] = system: soybean; experiment: as above; assay type: in vivo; settings: rated after sixteen days
From the text: as §5

[12] = system: sorghum; experiment: as above; assay type: in vivo; settings: POSTEMERGENCE; RATE 0.05 KG/HA; rated after sixteen days
From the text: as §5

[13] = system: cotton; experiment: as above; assay type: in vivo; settings: rated after sixteen days
From the text: as §5

[14] = system: cocklebur; experiment: Test B pan test in Sassafras sandy loam soil, pre- and postemergence; assay type: in vivo, Xantium pensyivanicum; settings: scale 0 to 100
From the text: as §1, §2, §3, §4

[15] = system: velvetleaf; experiment: Test A greenhouse herbicide test, pre- and postemergence; assay type: in vivo, Abutilon theophrasti; settings: rated after sixteen days
From the text: as §5

[16] = system: purple nutsedge; experiment: as above; assay type: in vivo, Cyperus rotundus; settings: rated after sixteen days
From the text: as §5

[17] = system: cocklebur; experiment: as above; assay type: in vivo, Xanthium pensylvanicum; settings: POSTEMERGENCE, rated after sixteen days
From the text: as §5

[18] = system: giant foxtail; experiment: as above; assay type: in vivo, Setaria faberii; settings: rated after sixteen days
From the text: as §5

## CCOC(=O)c1c(CC#N)cccc1S(=O)(=O)NC(=O)Nc1nc(OC)cc(OC)n1 [Compound 3, 2-(cyanomethyl)-6 [[(4,6-dimethoxypyrimidin-2-yl)-aminocarbonyl]aminosulfonyl]benzoic acid, ethyl ester]
[1]; POSTEMERGENCE, RATE 0001 G/HA
  RICE response rating: 60
[1]; POSTEMERGENCE, RATE 0004 G/HA
  RICE response rating: 90
[1]; POSTEMERGENCE, RATE 0016 G/HA
  RICE response rating: 100
[1]; POSTEMERGENCE, RATE 0062 G/HA
  RICE response rating: 100
[1]; PREEMERGENCE, RATE 0004 G/HA
  RICE response rating: 0
[1]; PREEMERGENCE, RATE 0016 G/HA
  RICE response rating: 30
[1]; PREEMERGENCE, RATE 0062 G/HA
  RICE response rating: 80
[2]; POSTEMERGENCE, RATE 0001 G/HA
  TEAWEED response rating: 30
[2]; POSTEMERGENCE, RATE 0004 G/HA
  TEAWEED response rating: 50
[2]; POSTEMERGENCE, RATE 0016 G/HA
  TEAWEED response rating: 70
[2]; POSTEMERGENCE, RATE 0062 G/HA
  TEAWEED response rating: 100
[2]; PREEMERGENCE, RATE 0004 G/HA
  TEAWEED response rating: 0
[2]; PREEMERGENCE, RATE 0016 G/HA
  TEAWEED response rating: 0
[2]; PREEMERGENCE, RATE 0062 G/HA
  TEAWEED response rating: 0
[3]; POSTEMERGENCE, RATE 0.01 KG/HA
  MORNING GLORY visual rating of response to treatment: 10C
[3]; POSTEMERGENCE, RATE 0.05 KG/HA
  MORNING GLORY visual rating of response to treatment: 10C
[3]; PREEMERGENCE, RATE 0.01 KG/HA
  MORNING GLORY visual rating of response to treatment: 2G
[3]; PREEMERGENCE, RATE 0.05 KG/HA
  MORNING GLORY visual rating of response to treatment: 9G
[4]; POSTEMERGENCE, RATE 0001 G/HA
  COTTON response rating: 30
[4]; POSTEMERGENCE, RATE 0004 G/HA
  COTTON response rating: 100
[4]; POSTEMERGENCE, RATE 0016 G/HA
  COTTON response rating: 100
[4]; POSTEMERGENCE, RATE 0062 G/HA
  COTTON response rating: 100
[4]; PREEMERGENCE, RATE 0004 G/HA
  COTTON response rating: 0
[4]; PREEMERGENCE, RATE 0016 G/HA
  COTTON response rating: 0
[4]; PREEMERGENCE, RATE 0062 G/HA
  COTTON response rating: 30
[5]; POSTEMERGENCE, RATE 0001 G/HA
  WILD BUCKWHEAT response rating: 30
[5]; POSTEMERGENCE, RATE 0004 G/HA
  WILD BUCKWHEAT response rating: 60
[5]; POSTEMERGENCE, RATE 0016 G/HA
  WILD BUCKWHEAT response rating: 90
[5]; POSTEMERGENCE, RATE 0062 G/HA
  WILD BUCKWHEAT response rating: 100
[5]; PREEMERGENCE, RATE 0004 G/HA
  WILD BUCKWHEAT response rating: 50
[5]; PREEMERGENCE, RATE 0016 G/HA
  WILD BUCKWHEAT response rating: 70
[5]; PREEMERGENCE, RATE 0062 G/HA
  WILD BUCKWHEAT response rating: 90
[6]
  WILD OATS visual rating of response to treatment: 3G
[7]; POSTEMERGENCE, RATE 0001 G/HA
  SOYBEAN response rating: 90
[7]; POSTEMERGENCE, RATE 0004 G/HA
  SOYBEAN response rating: 100
[7]; POSTEMERGENCE, RATE 0016 G/HA
  SOYBEAN response rating: 100
[7]; POSTEMERGENCE, RATE 0062 G/HA
  SOYBEAN response rating: 100
[7]; PREEMERGENCE, RATE 0004 G/HA
  SOYBEAN response rating: 0
[7]; PREEMERGENCE, RATE 0016 G/HA
  SOYBEAN response rating: 20
[7]; PREEMERGENCE, RATE 0062 G/HA
  SOYBEAN response rating: 40
[8]; POSTEMERGENCE, RATE 0.01 KG/HA
  CORN visual rating of response to treatment: 10C
[8]; PREEMERGENCE, RATE 0.05 KG/HA
  CORN visual rating of response to treatment: 9H
[9]; POSTEMERGENCE, RATE 0.01 KG/HA
  RICE visual rating of response to treatment: 9C
[9]; POSTEMERGENCE, RATE 0.05 KG/HA
  RICE visual rating of response to treatment: 9C
[9]; PREEMERGENCE, RATE 0.01 KG/HA
  RICE visual rating of response to treatment: 3G
[10]; RATE 0.01 KG/HA
  SUGAR BEETS visual rating of response to treatment: 10C
[10]; RATE 0.05 KG/HA
  SUGAR BEETS visual rating of response to treatment: 10C
[11]; POSTEMERGENCE, RATE 0.05 KG/HA
  SOYBEAN visual rating of response to treatment: 9C
[11]; PREEMERGENCE, RATE 0.01 KG/HA
  SOYBEAN visual rating of response to treatment: 5G
[12]
  SORGHUM visual rating of response to treatment: 9C
[13]; POSTEMERGENCE, RATE 0.01 KG/HA
  COTTON visual rating of response to treatment: 9C
[13]; POSTEMERGENCE, RATE 0.05 KG/HA
  COTTON visual rating of response to treatment: 10C
[13]; PREEMERGENCE, RATE 0.01 KG/HA
  COTTON visual rating of response to treatment: 3G
[14]; POSTEMERGENCE, RATE 0001 G/HA
  COCKLEBUR response rating: 70
[14]; POSTEMERGENCE, RATE 0004 G/HA
  COCKLEBUR response rating: 80
[14]; POSTEMERGENCE, RATE 0016 G/HA
  COCKLEBUR response rating: 90
[14]; POSTEMERGENCE, RATE 0062 G/HA
  COCKLEBUR response rating: 100
[14]; PREEMERGENCE, RATE 0004 G/HA
  COCKLEBUR response rating: 30
[14]; PREEMERGENCE, RATE 0016 G/HA
  COCKLEBUR response rating: 60
[14]; PREEMERGENCE, RATE 0062 G/HA
  COCKLEBUR response rating: 90
[15]; POSTEMERGENCE, RATE 0.01 KG/HA
  VELVETLEAF visual rating of response to treatment: 10C
[15]; POSTEMERGENCE, RATE 0.05 KG/HA
  VELVETLEAF visual rating of response to treatment: 10C
[15]; PREEMERGENCE, RATE 0.01 KG/HA
  VELVETLEAF visual rating of response to treatment: 2H
[15]; PREEMERGENCE, RATE 0.05 KG/HA
  VELVETLEAF visual rating of response to treatment: 5H
[16]; POSTEMERGENCE, RATE 0.01 KG/HA
  NUTSEDGE visual rating of response to treatment: 10C
[16]; POSTEMERGENCE, RATE 0.05 KG/HA
  NUTSEDGE visual rating of response to treatment: 10C
[16]; PREEMERGENCE, RATE 0.01 KG/HA
  NUTSEDGE visual rating of response to treatment: 4G
[16]; PREEMERGENCE, RATE 0.05 KG/HA
  NUTSEDGE visual rating of response to treatment: 9G
[17]; RATE 0.01 KG/HA
  COCKLEBUR visual rating of response to treatment: 10C
[17]; RATE 0.05 KG/HA
  COCKLEBUR visual rating of response to treatment: 10C
[18]; POSTEMERGENCE, RATE 0.01 KG/HA
  GIANT FOXTAIL visual rating of response to treatment: 9C
[18]; POSTEMERGENCE, RATE 0.05 KG/HA
  GIANT FOXTAIL visual rating of response to treatment: 10C
[18]; PREEMERGENCE, RATE 0.01 KG/HA
  GIANT FOXTAIL visual rating of response to treatment: 5G
